The text below walks through data of patent publication US12329738B2, “Urolithin A and a composition containing same for external use in inflammations of various etiologies” (WARSZAWSKI UNIWERSYTET MEDYCZNY, priority 2018, dated 2025).

Data set [1] has as its system IL-8, TNF-alpha and IL-1beta. Kind of data set: IL-8, TNF-alpha and IL-1beta production by LPS-stimulated human neutrophils (ELISA). Format: cell-based. To be noted: 40 μM (FIG. 12: 5, 10 and 40 μM); LPS 100 ng/mL, 24 h; derivatives compared with urolithin A. Here is the method:
After isolation, neutrophils were suspended in RPMI 1640 medium supplemented with L-glutamine, HEPES and 10% FBS and incubated with urolithin A and its acylated derivatives (SG1, SG2, SG3, SG4, SG1_m, SG2_m, SG3_m) at a concentration of 40 μM for 1 hour before stimulation with LPS from Escherichia coli (100 ng/mL). After 24 hours, IL-8, TNF-alpha and IL-1beta levels were determined using the immunochemical ELISA method (BD biosciences). The effect on neutrophil viability was assessed using annexin V and propidium iodide staining.
(§1) The obtained results of experiments on in vitro models were analyzed using the Statistica 13 program (StatSoft, Inc., Tulsa, OK, USA) and presented as mean values±SEM. Statistical significance was set at P≤0.05. The results with established normal distribution in the D'Agostin and Pearson test were prepared using analysis of variance (ANOVA). Parametric post-hoc analysis was performed using Dunnett's test.

The subject of a further data set is mRNA for TNF-alpha. The experiment in a line: TNF-alpha mRNA expression in THP-1 derived macrophages (real time PCR). It counts as cell-based, human. As to conditions: 40 μM; LPS stimulation; FIG. 14. Here is the method: Monocytes of the THP-1 line were cultured in RPMI 1640 medium supplemented with 10% FBS and 2 mM glutamine. For transformation of monocytes into macrophages, the cells were treated with 12.5 ng/mL PMA (phorbol 12-myristate 13-acetate) for 48 hours, then washed and incubated for 24 hours in a culture medium without PMA. After this time, urolithin A, urolithin B, iso-urolithin A and the corresponding glucuronides (GUA, GUB and GiUA) were added to the cells at a concentration of 40 μM. After 1 hour of incubation with the compounds, the cells were stimulated with LPS from Escherichia coli (10 ng/mL).
To assess the level of TNF-alpha production, the cells were incubated for 6 hours, to assess the expression of mRNA for TNF-alpha, the cells were incubated for 24 hours, to assess the effect on ERK1/2 phosphorylation, the cells were incubated for 35 minutes.
The level of TNF-alpha in the culture medium was determined using the immunochemical ELISA method (BD biosciences). Evaluation of the expression of mRNA for TNF-alpha was performed using real time PCR. After 24 hours of incubation, RNA was isolated using NucleoSpin RNA Clean-up (Macherey-Nagel). The amount and quality of isolated RNA was determined using 2100 Bioanalyzer (Agilent Technologies). The expression level of mRNA for TNF-α was determined using Brilliant II SYBR Green QPCR Kit and Aria Mx Real-Time PCR thermocycler (Agilent Technologies). The following were used as primers for TNF-alpha: forward: 5′-[…]-3′, reverse: 5′-[…]-3′. Beta-actin (ACTB) was used as the housekeeping gene; primer forward: 5′-[…]-3′, reverse: 5′-[…]-3′).
as §1
(Real-time PCR tracks product formation cycle by cycle.)

The subject of data set [2] is neutrophils and macrophages. To be noted: cited from earlier work.
The target of another data set is T1, tyrosinase (Mus musculus, UniProt P11344).
T1 sequence (P11344 19-533): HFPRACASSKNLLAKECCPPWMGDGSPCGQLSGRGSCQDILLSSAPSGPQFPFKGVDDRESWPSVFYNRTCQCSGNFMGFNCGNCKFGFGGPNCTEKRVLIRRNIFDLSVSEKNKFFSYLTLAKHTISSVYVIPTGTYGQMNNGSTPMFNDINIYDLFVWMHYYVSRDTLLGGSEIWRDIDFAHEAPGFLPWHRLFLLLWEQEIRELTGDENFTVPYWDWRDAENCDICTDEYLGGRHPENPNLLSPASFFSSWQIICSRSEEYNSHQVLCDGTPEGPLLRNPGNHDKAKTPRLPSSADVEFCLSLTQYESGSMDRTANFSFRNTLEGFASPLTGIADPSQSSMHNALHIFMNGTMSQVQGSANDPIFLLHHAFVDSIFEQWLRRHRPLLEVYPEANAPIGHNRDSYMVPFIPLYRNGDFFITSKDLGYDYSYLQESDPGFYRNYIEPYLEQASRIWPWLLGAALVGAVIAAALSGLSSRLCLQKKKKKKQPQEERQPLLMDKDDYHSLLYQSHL
To be noted: B16 melanoma cells; cited from earlier work.

A further data set deals with skin cells. As to conditions: in vitro; cited from earlier work.
Data set [3] has as its system Wistar rats (DNCB-induced atopic dermatitis). The experiment in a line: Pruritus level (scratch reflexes) in DNCB-induced atopic dermatitis rat model. Format: in vivo. Here is the method:
Wistar rats aged 5-6 weeks (at the start of the experiment) kept under standard conditions with free access to feed and water were used for the tests. The animals were divided into 5 groups, 8 individuals in each group. To prepare 2,4-dinitrochlorobenzene (DNCB) composition inducing inflammation, DNCB was dissolved in 70% ethanol to a final concentration of 1.5% (w/v). Therapeutic composition was an ointment based on white petrolatum with 0.2% or 1.0% urolithin A added. The control ointment was white petrolatum without addition of urolithin A. The induction of chronic atopic dermatitis involved local 9-fold infiltration with 60 μl 1.5% 2,4-dinitrochlorobenzene (DNCB) on each (external and internal) surface of the right ear over 3 weeks (3 times a week). Negative control was the right ear of rats without induction inflammation. Treatment of atopic dermatitis with 0.2% or 1.0% urolithin composition and white petrolatum (control) or 1.0% hydrocortisone composition (positive control) was started eight days after sensitization—one day before the fourth application of DNCB. Ointments with appropriate for given group drug added were applied in a total volume of about 20 μl to each ear surface one day before and 6 hours after each DNCB application (for a period of 3 weeks). The negative control group consisted of rats without induced inflammation and treated with white petrolatum in a regimen analogous to the composition of urolithin A or hydrocortisone. Measurement of pruritus level (as measured by scratching reflexes) was evaluated as the total frequency of scratch reflexes during 10 minutes immediately after DNCB application on days 0, 4, 8, 12, 16, 20, 24, 28 and 32 of the experiment). Scratching was defined as a single or series of several reflexes of scratching with a paw directed at the site of DNCB application. The experimental results obtained were analyzed using the Statistica 7.1 program (StatSoft, Inc., Tulsa, OK, USA) and presented as mean values±SE. Statistical significance was set at P≤0.05. The results with established normal distribution in the D'Agostin and Pearson test were prepared using two- or three-factor analysis of variance (ANOVA). Parametric post-hoc analysis for individual time points was performed using the Bonferroni test.

Take `O=c1oc2cc(O)ccc2c2ccc(O)cc12` [urolithin A]: the “Production of proinflammatory cytokines IL-8, TNF-alpha and IL-1beta by human neutrophils” value in data set [1] is reported as “inhibition of the production of proinflammatory cytokines”. Further, the “TNF-alpha mRNA expression in THP-1 derived macrophages” value in the data set with mRNA for TNF-alpha was “inhibitory effect on TNF-alpha mRNA expression”. Moreover, the “Cytotoxic or antiproliferative activity” value in data set [2] is “there was not observed either cytotoxic or antiproliferative activity”. Moreover, at tyrosinase, the “Tyrosinase activity (depigmentation)” value was “suppressing tyrosinase activity”. Moreover, the Melanin production result with skin cells is “reduced production of melanin”. The “Inhibition of scratching reflexes, comparison of urolithin doses with each other” value in data set [3] (0.2% vs 1%, p<0.05) was “more effective at a concentration of 1%”. For the same compound, the “Reduction in scratching rate, urolithin vs. hydrocortisone” value in data set [3] (overall effect, p<0.05) is “stronger”. Moreover, the “Scratching rate (frequency of scratch reflexes)” value in data set [3] (topical ointment, urolithin A 0.2 and 1.0% (p<0.001), hydrocortisone 1% (p<0.01)) is listed as “reduction in scratching rate”. Also, the “Inhibition of scratching reflexes compared to hydrocortisone 1%” value in data set [3] (urolithin A 0.2% ointment, p=0.39) is “absence of significantly greater efficiency”; in data set [3] (urolithin A 1% ointment, p<0.05), “significantly greater inhibition of scratching reflexes compared to hydrocortisone”.
